Common to all, as to assay: Kinase panel profiling at 1 µmol/L (MSA or IMAP), percentage inhibition
Common to all, as to type: biochemical

Test [1] concerns the target T1, panel of 255 wild-type kinases (Homo sapiens, UniProt P51817).
T1 sequence (P51817 1-358): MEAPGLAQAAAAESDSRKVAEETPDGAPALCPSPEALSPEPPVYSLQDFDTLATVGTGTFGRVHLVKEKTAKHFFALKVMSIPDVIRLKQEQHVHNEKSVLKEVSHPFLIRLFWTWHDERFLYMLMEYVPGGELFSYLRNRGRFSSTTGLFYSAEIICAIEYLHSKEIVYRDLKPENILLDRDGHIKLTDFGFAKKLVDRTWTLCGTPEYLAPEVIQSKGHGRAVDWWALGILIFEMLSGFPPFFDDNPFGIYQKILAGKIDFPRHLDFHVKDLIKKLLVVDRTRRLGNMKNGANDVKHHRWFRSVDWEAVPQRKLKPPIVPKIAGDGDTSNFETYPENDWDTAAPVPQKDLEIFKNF
As to conditions: read-out: %-inhibition at 1 µmol/L, PRKX.

In test [2] the target is panel of 255 wild-type kinases (Homo sapiens, UniProt P07949). To be noted: read-out: %-inhibition at 1 µmol/L, RET.
In test [3] the target is panel of 255 wild-type kinases (Homo sapiens, UniProt P24723). As to conditions: read-out: %-inhibition at 1 µmol/L, PKCη.
The target of test [4] is T2, panel of 255 wild-type kinases (Homo sapiens, UniProt Q9HBY8).
T2 sequence (Q9HBY8 1-367): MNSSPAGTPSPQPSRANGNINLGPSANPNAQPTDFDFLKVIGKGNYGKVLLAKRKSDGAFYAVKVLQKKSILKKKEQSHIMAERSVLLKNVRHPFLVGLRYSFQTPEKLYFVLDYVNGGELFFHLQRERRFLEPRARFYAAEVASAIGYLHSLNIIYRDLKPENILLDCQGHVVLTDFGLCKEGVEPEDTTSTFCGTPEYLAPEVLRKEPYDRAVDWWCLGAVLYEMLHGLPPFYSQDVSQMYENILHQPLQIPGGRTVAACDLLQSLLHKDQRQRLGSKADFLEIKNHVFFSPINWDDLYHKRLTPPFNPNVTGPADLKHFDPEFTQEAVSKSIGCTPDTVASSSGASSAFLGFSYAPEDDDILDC
To be noted: read-out: %-inhibition at 1 µmol/L, SGK2.

The target of test [5] is panel of 255 wild-type kinases (Homo sapiens, UniProt Q9H1R3). As to conditions: read-out: %-inhibition at 1 µmol/L, skMLCK.
In test [6] the target is T3, panel of 255 wild-type kinases (Homo sapiens, UniProt Q13470).
T3 sequence (Q13470 1-666): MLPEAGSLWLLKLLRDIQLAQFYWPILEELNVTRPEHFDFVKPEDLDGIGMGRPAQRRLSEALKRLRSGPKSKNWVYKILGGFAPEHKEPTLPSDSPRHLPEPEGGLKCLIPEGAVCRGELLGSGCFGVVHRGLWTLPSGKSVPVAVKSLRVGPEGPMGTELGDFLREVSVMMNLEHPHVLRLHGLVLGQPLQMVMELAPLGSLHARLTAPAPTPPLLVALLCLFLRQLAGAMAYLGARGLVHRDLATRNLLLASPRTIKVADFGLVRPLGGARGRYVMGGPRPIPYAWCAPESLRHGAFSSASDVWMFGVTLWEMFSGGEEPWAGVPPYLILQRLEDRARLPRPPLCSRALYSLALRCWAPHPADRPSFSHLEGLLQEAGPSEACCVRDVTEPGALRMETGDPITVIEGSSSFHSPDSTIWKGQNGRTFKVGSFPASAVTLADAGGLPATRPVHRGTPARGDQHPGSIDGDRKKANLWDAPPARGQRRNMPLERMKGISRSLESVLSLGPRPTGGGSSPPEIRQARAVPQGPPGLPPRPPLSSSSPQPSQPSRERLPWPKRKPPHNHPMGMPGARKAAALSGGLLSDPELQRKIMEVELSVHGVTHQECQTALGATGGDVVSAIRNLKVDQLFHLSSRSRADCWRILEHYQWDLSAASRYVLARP
As to conditions: read-out: %-inhibition at 1 µmol/L, TNK1.

For test [7], the target named is panel of 255 wild-type kinases (Homo sapiens, UniProt Q15119). To be noted: read-out: %-inhibition at 1 µmol/L, PDHK2.
The target of test [8] is panel of 255 wild-type kinases (Homo sapiens, UniProt Q7KZI7). As to conditions: read-out: %-inhibition, MARK2.
Test [9] addresses T4, panel of 255 wild-type kinases (Homo sapiens, UniProt P42681).
T4 sequence (P42681 1-527): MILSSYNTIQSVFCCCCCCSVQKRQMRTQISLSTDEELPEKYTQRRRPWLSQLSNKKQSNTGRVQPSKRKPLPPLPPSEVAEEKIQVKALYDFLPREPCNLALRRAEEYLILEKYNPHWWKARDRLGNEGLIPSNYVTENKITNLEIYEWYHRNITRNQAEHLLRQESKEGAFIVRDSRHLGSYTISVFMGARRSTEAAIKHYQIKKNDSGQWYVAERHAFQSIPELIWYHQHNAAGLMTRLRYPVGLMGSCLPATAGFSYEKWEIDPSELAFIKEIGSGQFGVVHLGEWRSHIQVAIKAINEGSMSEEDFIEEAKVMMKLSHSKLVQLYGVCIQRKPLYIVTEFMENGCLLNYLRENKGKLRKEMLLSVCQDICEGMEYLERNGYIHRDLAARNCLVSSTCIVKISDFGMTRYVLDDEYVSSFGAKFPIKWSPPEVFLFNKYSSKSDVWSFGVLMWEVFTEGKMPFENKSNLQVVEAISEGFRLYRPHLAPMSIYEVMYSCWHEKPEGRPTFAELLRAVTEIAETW
As to conditions: read-out: %-inhibition at 1 µmol/L, TXK.

Where [10] appears, read: kinase PRKX, 1 µmol/L single concentration.
[11] abbreviates: kinase RET, 1 µmol/L single concentration.
[12] abbreviates: kinase PKCη, 1 µmol/L single concentration.
[13] abbreviates: kinase SGK2, 1 µmol/L single concentration.
Setting [14] is: kinase skMLCK, 1 µmol/L single concentration.
Setting [15] is: kinase TNK1, 1 µmol/L single concentration.
The mark [16] stands for this setting: kinase PDHK2, 1 µmol/L single concentration.
Where [17] appears, read: MARK2, 1 µmol/L single concentration.
The mark [18] stands for this setting: kinase TXK, 1 µmol/L single concentration.

SMILES strings stand for the structures. Like-named read-outs stand apart in the source and are kept apart here.

On to `Cc1nc(NC(=O)N2CCC[C@H]2C(N)=O)sc1-c1ccnc(C(C)(C)C(F)(F)F)c1` [alpelisib], for which the inhibition at 1 µM in test [1] (setting [10]) was -4.49%; in test [2] (setting [11]) it was 1.62%; in test [3] (setting [12]), 1.42%; in [4] (setting [13]), -2%; in test [5] (setting [14]) it was -3.8%; in [6] (setting [15]), -4.23%. Besides, the results for the inhibition at 1 µM in test [7] (setting [16]), in [8] (setting [17]) and in [9] (setting [18]) were 0.0902%, -0.36% and -4%, respectively.
For `Cn1cc(-c2cc3c(N4CCN(c5ncc([C@@](C)(N)c6ccc(F)cc6)cn5)CC4)ncnn3c2)cn1` [avapritinib], the inhibition at 1 µM in test [1] (setting [10]) is 37%; in [2] (setting [11]), 96%; in test [3] (setting [12]) it was -5%; in [4] (setting [13]) it was -4.22%; in test [5] (setting [14]) it was 1.29%; in [6] (setting [15]), 19%. The inhibition at 1 µM in [7] (setting [16]) was 0.651%; in [8] (setting [17]), -12%; in test [9] (setting [18]), 20%.
Turning to `Cn1cnc2c(F)c(Nc3ccc(Br)cc3F)c(C(=O)NOCCO)cc21` [binimetinib], the inhibition at 1 µM in test [1] (setting [10]) was 2.57%; in test [2] (setting [11]), -6%; in test [3] (setting [12]), 6%; in test [4] (setting [13]), -0.294%; in [5] (setting [14]), -5.4%; in test [6] (setting [15]), -8%. The inhibition at 1 µM in test [7] (setting [16]) was -1.13%; in test [8] (setting [17]), -6%; in [9] (setting [18]), -3%.
Regarding `CNC(=O)c1ccc(-c2cnc3ncc(Cc4ccc5ncccc5c4)n3n2)cc1F` [capmatinib], the inhibition at 1 µM in test [1] is -5.65%; in test [2], 11%; in test [3] it was -8.53%; in test [4], -5.54%; in test [5], -2%; in [6] it was -11%. Moreover, the inhibition at 1 µM in test [7] is -2.62%; in test [8], -8%; in test [9], 2.34%.
Regarding `COc1cc2ncnc(Nc3ccc(F)c(Cl)c3)c2cc1NC(=O)/C=C/CN1CCCCC1` [dacomitinib], the inhibition at 1 µM in [1] (setting [10]) is 0.677%; in test [2] (setting [11]), 40%; in test [3] (setting [12]), 11%; in test [4] (setting [13]) it was -9%; in test [5] (setting [14]) it was 10%; in test [6] (setting [15]) it was 35%. Further, the results for the inhibition at 1 µM in test [7] (setting [16]), in test [8] (setting [17]) and in test [9] (setting [18]) were 2.44%, -0.433% and 80%, respectively.
With `C[C@H](Nc1ncnc2nc[nH]c12)c1cc2cccc(Cl)c2c(=O)n1-c1ccccc1` [duvelisib], the inhibition at 1 µM is 0.385% in [1] (setting [10]); 8% in [2] (setting [11]); 0.743% in test [3] (setting [12]); -2.27% in test [4] (setting [13]); -7% in [5] (setting [14]); -2.72% in test [6] (setting [15]). Further, the values for the inhibition at 1 µM in test [7] (setting [16]), in test [8] (setting [17]) and in test [9] (setting [18]) were 3.57%, -2.13% and -0.177%, respectively.
As for `COC(=O)N[C@@H](C)CNc1nccc(-c2cn(C(C)C)nc2-c2cc(Cl)cc(NS(C)(=O)=O)c2F)n1` [encorafenib], the inhibition at 1 µM in test [1] (setting [10]) was 1.82%; in test [2] (setting [11]) it was -10%; in test [3] (setting [12]) it was 13%; in test [4] (setting [13]), 3.5%; in test [5] (setting [14]) it was -4.51%; in test [6] (setting [15]), -3.4%. Besides, the values for the inhibition at 1 µM in [7] (setting [16]), in test [8] (setting [17]) and in [9] (setting [18]) were -2%, 5.68% and -3.43%, respectively.
Turning to `CN1CCN(c2ccc(C(=O)Nc3n[nH]c4ccc(Cc5cc(F)cc(F)c5)cc34)c(NC3CCOCC3)c2)CC1` [entrectinib], the inhibition at 1 µM in [1] (setting [10]) is 2.19%; in test [3] (setting [12]) it was 19%; in test [4] (setting [13]), -3.18%; in [5] (setting [14]) it was 1.33%; in test [6] (setting [15]), 99%; in [7] (setting [16]), 4.24%. Besides, the results for the inhibition at 1 µM in [8] (setting [17]) and in test [9] (setting [18]) were 9% and 98%, respectively.
For the compound `CCc1nc(C(N)=O)c(Nc2ccc(N3CCC(N4CCN(C)CC4)CC3)c(OC)c2)nc1NC1CCOCC1` [gilteritinib], the inhibition at 1 µM in [1] (setting [10]) is 4%; in test [2] (setting [11]), 100%; in test [3] (setting [12]), 13%; in [4] (setting [13]), -3.51%; in test [5] (setting [14]) it was 5%; in test [6] (setting [15]), 97%. The inhibition at 1 µM in test [7] (setting [16]) amounted to 5%; in test [8] (setting [17]), 43%; in test [9] (setting [18]) it was 79%.
As to `CCN1CCN(c2ccc(Nc3cc(N(C)C(=O)Nc4c(Cl)c(OC)cc(OC)c4Cl)ncn3)cc2)CC1` [infigratinib], the inhibition at 1 µM is -3.53% in test [1] (setting [10]); 2% in test [3] (setting [12]); -8% in test [4] (setting [13]); -3% in test [5] (setting [14]); 21% in [6] (setting [15]); -3.38% in test [7] (setting [16]). Besides, the figures for the inhibition at 1 µM in [8] (setting [17]) and in test [9] (setting [18]) were -9% and 4.32%, respectively.
`O=C(Nc1cnn2ccc(N3CCC[C@@H]3c3cc(F)ccc3F)nc12)N1CC[C@H](O)C1` [larotrectinib]: the inhibition at 1 µM in test [1] (setting [10]) is 0.637%; in [2] (setting [11]), 1.71%; in test [3] (setting [12]), 1.58%; in test [4] (setting [13]), -4%; in [5] (setting [14]), -6%; in test [6] (setting [15]) it was -0.876%. For the same compound, the inhibition at 1 µM was 5% in test [7] (setting [16]), -19% in [8] (setting [17]) and 16% in [9] (setting [18]).
